Measured values from US20090029855A1, “Quinoline Derivatives and Their Use as Pesticides” (priority 2006, published 2009).

How the values were obtained:
Type in all cases: in vivo
[1] = system: Boll Weevil (Anthonomus grandis); assay: Activity against boll weevil, eggs in microtiterplates; settings: eggs sprayed, 3 to 5 days
Method: The active compounds were formulated in 1:3 DMSO:water. 10 to 15 eggs were placed into microtiterplates filled with 2% agar-agar in water and 300 ppm formaline. The eggs were sprayed with 20 μl of the test solution, the plates were sealed with pierced foils and kept at 24-26° C. and 75-85% humidity with a day/night cycle for 3 to 5 days. Mortality was assessed on the basis of the remaining unhatched eggs or larvae on the agar surface and/or quantity and depth of the digging channels caused by the hatched larvae. Tests were replicated 2 times.

[2] = system: Yellowfever Mosquitos (Aedes Aegypti), 4th instar larvae; assay: Activity against yellowfever mosquitos via water treatment
Method: The test compound (1 Vol % in acetone) was applied to 9 ml distilled water In polystyrene plastic 6-well plates. Treatment rates were applied 1 and 10 ppm. Ten, 4th instar yellowfever mosquito larvae, Aedes aegypti, were added to each well in 1 ml of distilled water. The test dishes were maintained at 22° C. and observed daily for mortality, up to 5 days after treatment. Each treatment was replicated in 6 wells.

[3] = system: Eastern Subterranean Termites (Reticulitérmes Flávipes); assay: Activity against eastern subterranean termites via termite filter paper bait
Method: Toxicant treatments (0.1 and 0.3% test compound w/w) were applied to 4.25 cm (diam.) filter papers in acetone solution. Treatment levels (% test compound) were calculated on basis of a mean weight per filter paper of 106.5 mg. Treatment solutions were adjusted to provide the quantity of toxicant (mg) required per paper in […] of acetone. Acetone only was applied for untreated controls. Treated papers were vented to evaporate the acetone, moistened with 0.25 ml water, and placed in corresponding test arenas.
Termite bait bioassays were conducted in 100×15 mm Petri dishes with 1 teaspoon fine sand spread in a thin layer over the bottom of each dish. An additional 0.25 teaspoon sand was piled against the side of each dish. The sand was moistened with 2.7 ml water applied to the piled sand. Water was added to dishes as needed over the course of the bioassays to maintain high moisture content. Bioassays had one treated filter (on the sand) and 30 termite workers per test dish. Each treatment level was replicated in 3 test dishes. Test dishes were maintained at approximately 30° C. and 85% humidity for 14 days and observed daily for mortality.

[4] = system: Yellowfever Mosquito (Aedes aegypti); assay: Yellowfever mosquito glass vial (glass contact) assay
Method: (§1) Glass vials (20 ml scintillation vials) were treated with 0.44 ml of a solution of active ingredient in acetone. Each vial was rolled uncapped for ca. 10 minutes to allow the active ingredient to completely coat the vial and to allow for full drying of the acetone. Six insects or ticks were placed into each vial, with 5 vials per treatment rate. The vials are kept at 22° C. and are observed for treatment effects at various time intervals.

[5] = system: House Fly (Musca domestica); assay: House fly glass vial (glass contact) assay
Method: as §1

[6] = system: Acrobat Ant (Crematogaster sp.); assay: Acrobat ant glass vial (glass contact) assay
Method: as §1

[7] = system: Acrobat Ant (Crematogaster sp.); assay: Acrobat ant soil incorporation assay
Method: (§2) Soil was prepared by adding stock solutions (active dissolved in acetone) to 100 g sandy loam soil to make 1, 10, and 100 ppm batches. Jars of soils were rolled on a jar roller to mix thoroughly and then allowed to vent over night with the acetone evaporating off.
Ant bioassays were conducted in 100×20 mm Petri dishes and were prepared with a layer of 1% agar (7 ml) and then 12.75 g of dry treated soil. A cotton pellet (#2) soaked with a 10% sugar solution was added to each dish in a micro-weigh boat as a source of moisture and food. Each dish was then infested with 15 acrobat ant workers, Crematogaster sp. Three replicates were setup per treatment rate. Mortality was observed daily up to 7 days with moribund and dead ants removed at each reading.

[8] = system: Subterranean Termites (Reticulitermes flavipes); assay: Termite soil incorporation assay; settings: 100 ppm after 9 days
Method: as §2
Subterranean termite bioassays were conducted in 50×15 mm Petri dishes and were prepared with a layer of 1% agar (2 ml) and then 2 g of dry treated soil. A 1 cm^2 piece of filter paper, moistened with 1 drop of distilled water was added to each dish as a source of cellulose food. Each dish was then infested with 15 eastern subterranean termite workers, Reticulitermes flavipes. Five replicates were setup per treatment rate. Mortality was observed daily up to 7 days with moribund and dead termites removed at each reading.

[9] = system: Mediterranean Fruitfly (Ceratitis Capifata); assay: Activity against Mediterranean fruitfly, eggs in microtiterplates; settings: 144 h, eggs sprayed, 6 days
Method: (§3) The active compounds were formulated in 1:3 DMSO:water. 50 to 80 eggs were placed into microtiterplates filled with 0.5% agar-agar and 14% diet in water. The eggs were sprayed with 5 μl of the test solution, the plates were sealed with pierced foils and kept at 27-29° C. and 75-85% humidity under fluorescent light for 6 days. Mortality was assessed on the basis of the agility of the hatched larvae. Tests were replicated 2 times.

[10] = system: Tobacco Budworm (Heliothis Virescens); assay: Activity against tobacco budworm, eggs in microtiterplates; settings: 144 h, eggs sprayed, 6 days
Method: as §3, with “DMSO:water. 15” for “DMSO:water. 50”, “to 25” for “to 80”, “with diet.” for “with 0.5% agar-agar and 14% diet in water.”, “with 10” for “with 5”, “agility and of comparative feeding” for “agility”

[11] = system: Vetch Aphid (Megoura Viciae); assay: Activity against vetch aphid, bean leaf disks in microtiterplates; settings: foliar, 144 h, leaf disks sprayed, 6 days
Method: The active compounds were formulated in 1:3 DMSO:water. Bean leaf disks were placed into microtiterplates filled with 0.8% agar-agar and 2.5 ppm OPUS™. The leaf disks were sprayed with 2.5 μl of the test solution and 5 to 8 adult aphids were placed into the microtiterplates which were then closed and kept at 22-24° C. and 35-45% under fluorescent light for 6 days. Mortality was assessed on the basis of vital, reproduced aphids. Tests were replicated 2 times.

[12] = system: Cotton Aphid (Aphis Gossypil), mixed life stages; assay: Cotton aphid, mixed life stages, cotton cotyledon dip; settings: 120 h, after 5 days, read-out: mortality in comparison with untreated controls
Source text: The active compounds were formulated in 50:50 acetone:water and 100 ppm Kinetic® surfactant.
Cotton plants at the cotyledon stage were infested prior to treatment by placing a heavily infested leaf from the main aphid colony on top of each cotyledon. The aphids were allowed to transfer overnight and the host leaf was removed. The infested cotyledons were then dipped and agitated in the test solution for 3 seconds and allowed to dry in a fume hood. Test plants were maintained under fluorescent lighting in a 24-hr photoperiod at 25° C. and 20-40% relative humidity. Aphid mortality on the treated plants, relative to mortality on untreated check plants, was determined after 5 days.

[13] = system: Southern Armyworm (Spodoptera Eridanid), 2nd-3rd instar larvae; assay: Southern armyworm, lima bean foliage dip; settings: foliar, 96 h, after 4 days, read-out: mortality in comparison with untreated controls
Method: The active compounds were formulated as a 10.000 ppm solution in a mixture of 35% acetone and water, which was diluted with water, if needed.
Sieva lima bean foliage, expanded to the first true leaves, were dipped and agitated in the test solution for 3 seconds and then allowed to dry in a fume hood. The treated plant was then placed in 25-cm plastic perforated zip enclosure bags, ten 2nd-instar larvae were added, and the bags sealed. After 4 days, observations were made of mortality, plant feeding, and of any interference with larval growth.

[14] = system: Green Peach Aphid (Myzus Persicae); assay: Green peach aphid, pepper plant leaf dip; settings: foliar, 120 h, after 5 days, read-out: mortality in comparison with untreated controls
Method: (§4) The active compounds were formulated in 50:50 acetone:water and 100 ppm Kinetic™ surfactant.
Pepper plants in the 2nd leaf-pair stage (variety California Wonder) were infested with approximately 40 laboratory-reared aphids by placing infested leaf sections on top of the test plants. The leaf sections were removed after 24 hr. The leaves of the intact plants were dipped into gradient solutions of the test compound and allowed to dry. Test plants were maintained under fluorescent light (24 hour photoperiod) at about 25° C. and 20-40% relative humidity. Aphid mortality on the treated plants, relative to mortality on check plants, was determined after 5 days.

[15] = system: Silverleaf whitefly (Bemisia Argentifolii); assay: Silverleaf whitefly, cotton cotyledon dip; settings: 72 h, 3 days after treatment, read-out: mortality in comparison with untreated controls
Method: as §4
Selected cotton plants were grown to the cotyledon state (one plant per pot). The cotyledons were dipped into the test solution to provide complete coverage of the foliage and placed in a well-vented area to dry. Each pot with treated seedling was placed in a plastic cup and 10 to 12 whitefly adults (approximately 3-5 day old) were introduced. The insects were colleted using an aspirator and an 0.6 cm, non-toxic Tygon tubing connected to a barrier pipette tip. The tip, containing the collected insects, was then gently inserted into the soil containing the treated plant, allowing insects to crawl out of the tip to reach the foliage for feeding. The cups were covered with a re-usable screened lid (150 micron mesh polyester screen PeCap from Tetko Inc). Test plants were maintained in the holding room at about 25° C. and 20-40% relative humidity for 3 days avoiding direct exposure to the fluorescent light (24 hour photoperiod) to prevent trapping of heat inside the cup. Mortality was assessed 3 days after treatment of the plants.

[16] = system: Cowpea Aphid (Aphis Craccivora); assay: Activity against cowpea aphid, sprayed potted cowpea plants; settings: population reduction recorded after 24, 72 and 120 hours, read-out: mortality in comparison with untreated controls
Method: The active compounds were formulated in 50:50 acetone:water. Potted cowpea plants colonized with 100-150 aphids of various stages were sprayed after the pest population has been recorded. Population reduction was recorded after 24, 72, and 120 hours.

[17] = system: Diamond Back Moth (plutella Xylostella); assay: Activity against diamond back moth, cabbage leaf disk dip; settings: foliar, after 72 h, read-out: mortality in comparison with untreated controls
Method: 13. Activity Against Diamond Back Moth (plutella Xylostella) The active compounds were formulated in 50:50 acetone:water and 0.1% (vol/vol) Alkamuls EL 620 surfactant. A 6 cm leaf disk of cabbage leaves was dipped in the test solution for 3 seconds and allowed to air dry in a Petri plate lined with moist filter paper. The leaf disk was inoculated with 10 third instar larvae and kept at 25-27° C. and 50-60% humidity for 3 days. Mortality was assessed after 72 h of treatment.

[18] = system: 2-Spotted Spider Mite (Tetranychus Urticae, OP-Resistant Strain); assay: 2-spotted spider mite, lima bean plant dip; settings: 300 ppm; after 5 days
Method: as §4
Sieva lima bean plants with primary leaves expanded to 7-12 cm were infested by placing on each a small piece from an infested leaf (with about 100 mites) taken from the main colony. This was done at about 2 hours before treatment to allow the mites to move over to the test plant to lay eggs. The piece of leaf used to transfer the mites was removed. The newly-infested plants were dipped in the test solution and allowed to dry. The test plants were kept under fluorescent light (24 hour photoperiod) at about 25° C. and 20-40% relative humidity. After 5 days, one leaf was removed and mortality counts were made.

[19] = system: Colorado Potato Beetle (Leptinotarsa Decemlineata); assay: Colorado potato beetle, potato leaf dip in Petri dishes; settings: foliar, 120 h, 5 days after treatment, read-out: mortality in comparison with untreated controls
Method: Potato plants were utilized for bioassays. Excised plant leaves were dipped into 1:1 acetone/water dilutions of the active compounds. After the leaves had dried, they were individually placed onto water-moistened filter paper on the bottoms of Petri dishes. Each dish was infested with 5-7 larvae and covered with a lid. Each treatment dilution was replicated 4 times. Test dishes were held at approximately 27° C. and 60% humidity. Numbers of live and morbid larvae were assessed in each dish at 5 days after treatment application, and percent mortality was calculated.

`O=S(=O)(NCc1ccnc2c(F)cccc12)c1ccc(Br)cc1` [II-5, 4-bromo-N-(8-fluoro-quinolin-4-ylmethyl)-benzenesulfonamide] gave a mortality at 2500 ppm [1] of at least 75%.
For `O=S(=O)(NCc1ccnc2ccccc12)c1ccc(-c2ccc(C(F)(F)F)cc2C(F)(F)F)cc1` [I-10], the mortality ([2]; 10 ppm after 5 days) was 52%, the mortality ([3]; 0.3% w/w after 14 days) was 86% and the mortality ([4]; 10 ppm after 24 hours) was 100%. The mortality ([5]; 10 ppm after 24 hours) was 80%, the mortality ([6]; 100 ppm after 2 days) was 86% and the mortality ([7]; 100 ppm after 3 days) was 100%. It also gave a mortality [8] of 84%.
Compound `O=S(=O)(NCc1ccnc2ccccc12)c1ccc(-c2cc(Cl)ccc2Cl)cc1` [I-8, 2′,5′-dichloro-biphenyl-4-sulfonicacid (quinoline-4-ylmethyl)-amide] has a mortality at 2500 ppm [1] of at least 75%, a mortality at 2500 ppm [9] of at least 75% and a mortality at 2500 ppm [10] of at least 75%. It also gave a mortality at 2500 ppm [11] of at least 75%, a mortality at 300 ppm [12] of at least 80% and a mortality at 300 ppm [13] of at least 80%. For the same compound, the mortality at 300 ppm [14] was at least 75%, the mortality at 300 ppm [15] was at least 70% and the mortality at 300 ppm [16] was at least 80%. The mortality at 300 ppm [17] was at least 75%.
With `Cc1cc(C(F)(C(F)(F)F)C(F)(F)F)ccc1-c1ccc(S(=O)(=O)NCc2ccnc3ccccc23)cc1` [I-46] the “mortality in comparison with untreated controls” value [18] was “at least 70%”.
In the case of `O=S(=O)(NCc1ccnc2ccccc12)c1ccc(-c2ccc(Cl)cc2Cl)cc1` [I-1], the mortality ([2]; 1 ppm after 3 days) was 100%, the mortality ([3]; 0.1% w/w after 7 days) was 99% and the mortality ([4]; 10 ppm after 48 hours) was 37%. For the same compound, the mortality ([5]; 10 ppm after 48 hours) was 30%, the mortality ([6]; 100 ppm after 4 days) was 7% and the mortality ([7]; 100 ppm after 7 days) was 36%. It also gave a mortality [8] of 95%.
With `O=S(=O)(NCc1ccnc2c(Cl)cccc12)c1ccc(-c2ccc(C(F)(F)F)cc2C(F)(F)F)cc1` [I-22, 2′,4′-bis-trifluoromethyl-biphenyl-4-sulfonic acid (8-chloroquinoline-4-yl-methyl)-amide] the mortality at 300 ppm [13] was at least 80% and the mortality at 300 ppm [19] was at least 75%.
